The record followed here is patent US9777002B2, “Inhibitors of the renal outer medullary potassium channel” (Merck Sharp & Dohme Corp., priority 2012, dated 2017).

The target in the experiment is T1, hROMK (hKir1.1) (Homo sapiens, UniProt P48048).
T1 construct: expressed in transfected cells
T1 sequence (P48048 1-391): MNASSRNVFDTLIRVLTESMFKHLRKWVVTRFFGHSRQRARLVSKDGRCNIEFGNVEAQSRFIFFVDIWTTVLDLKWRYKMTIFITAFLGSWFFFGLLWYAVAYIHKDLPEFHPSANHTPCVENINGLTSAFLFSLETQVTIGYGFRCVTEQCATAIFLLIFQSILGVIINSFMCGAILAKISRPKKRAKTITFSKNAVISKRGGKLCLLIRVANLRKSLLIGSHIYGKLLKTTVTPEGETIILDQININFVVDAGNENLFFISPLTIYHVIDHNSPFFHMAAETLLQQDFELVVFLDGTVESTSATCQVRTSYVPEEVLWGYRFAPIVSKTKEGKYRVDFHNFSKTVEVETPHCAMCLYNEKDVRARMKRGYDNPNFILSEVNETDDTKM
Description: Thallium Flux Assay. The experiment is classed as cell-based. To be noted: HEK293 cells stably expressing hROMK (hKir1.1). The method, boiled down:
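HEK293 cells stably expressing hROMK were loaded with FluxOR dye for 90 min, then incubated with compound in probenecid assay buffer plus 0.3 mM ouabain, pH 7.4, for 30 min at 23-25 °C. Flux was triggered with 3 mM thallium/0.3 mM potassium (final) and read on FLIPR-Tetra for ~10 min. IC50 was calculated against the signal blocked by 3 μM control inhibitor.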

In turn, `Cc1c([C@@H](O)CN2CC[C@@H](NC(=O)c3ccc(-n4cnnn4)cn3)C2)ccc2c1COC2=O` [Example 62, N-((R)-1-((R)-2-Hydroxy-2-(4-methyl-1-oxo-1,3-dihydroisobenzofuran-5-yl)ethyl)pyrrolidin-3-yl)-5-(1H-tetrazol-1-yl)picolinamide] yielded a half-inhibitory concentration (IC50) of 370 nM. `Cc1cc(C(=O)NC2(C)CCN(C[C@H](O)c3ccc4c(c3C)COC4=O)CC2)ncc1-n1cnnn1` [Example 63, (R)-N-(1-(2-Hydroxy-2-(4-methyl-1-oxo-1,3-dihydroisobenzofuran-5-yl)ethyl)-4-methylpiperidin-4-yl)-4-methyl-5-(1H-tetrazol-1-yl)picolinamide]: the IC50 came to 860 nM. For `Cc1c([C@@H](O)CN2CCC(NC(=O)c3cnc(-n4cnnn4)cn3)CC2)ccc2c1COC2=O` [Example 64, (R)-N-(1-(2-Hydroxy-2-(4-methyl-1-oxo-1,3-dihydroisobenzofuran-5-yl)ethyl)piperidin-4-yl)-5-(1H-tetrazol-1-yl)pyrazine-2-carboxamide], 470 nM corresponded to half-maximal inhibition (IC50). Then `Cc1c([C@@H](O)CN2CCC(NC(=O)c3ccc(-n4cnnn4)nn3)CC2)ccc2c1COC2=O` [Example 65, (R)-N-(1-(2-Hydroxy-2-(4-methyl-1-oxo-1,3-dihydroisobenzofuran-5-yl)ethyl)piperidin-4-yl)-6-(1H-tetrazol-1-yl)pyridazine-3-carboxamide], with 110 nM; and `Cc1c([C@@H](O)CN2CCC(NC(=O)c3ccc4nonc4c3)CC2)ccc2c1COC2=O` [Example 66, (R)-N-(1-(2-Hydroxy-2-(4-methyl-1-oxo-1,3-dihydroisobenzofuran-5-yl)ethyl)piperidin-4-yl)benzo[c][1,2,5]oxadiazole-5-carboxamide], with 220 nM.

As to `Cc1c([C@@H](O)CN2CCCC(C)(CNC(=O)c3ccc(-n4cnnn4)cn3)C2)ccc2c1COC2=O` (stereo partly drawn) [Example 67, N-((1-((R)-2-Hydroxy-2-(4-methyl-1-oxo-1,3-dihydroisobenzofuran-5-yl)ethyl)-3-methylpiperidin-3-yl)methyl)-5-(1H-tetrazol-1-yl)picolinamide], the half-maximal inhibitory concentration (IC50) came to 360 nM. `Cc1c([C@@H](O)CN2CCC(CNC(=O)c3ccc(-n4cnnn4)cn3)(c3ccccc3)C2)ccc2c1COC2=O` (stereo partly drawn) [Example 68, N-((1-((R)-2-Hydroxy-2-(4-methyl-1-oxo-1,3-dihydroisobenzofuran-5-yl)ethyl)-3-phenylpyrrolidin-3-yl)methyl)-5-(1H-tetrazol-1-yl)picolinamide] returned a 50% inhibitory concentration (IC50) of 630 nM. Regarding `Cc1c([C@@H](O)CN2CCC(C3(NC(=O)c4ccc(-n5cnnn5)cn4)CCC3)C2)ccc2c1COC2=O` (stereo partly drawn) [Example 70, N-(1-(1-((R)-2-Hydroxy-2-(4-methyl-1-oxo-1,3-dihydroisobenzofuran-5-yl)ethyl)pyrrolidin-3-yl)cyclobutyl)-5-(1H-tetrazol-1-yl)picolinamide], the 50% inhibitory concentration (IC50) was determined as 760 nM. In turn, `Cc1c([C@@H](O)CN2CCC(C)(NC(=O)c3ccc(-n4cnnn4)nn3)CC2)ccc2c1COC2=O` [Example 71, (R)-N-(1-(2-Hydroxy-2-(4-methyl-1-oxo-1,3-dihydroisobenzofuran-5-yl)ethyl)-4-methylpiperidin-4-yl)-6-(1H-tetrazol-1-yl)pyridazine-3-carboxamide] displayed an IC50 of 280 nM.

`Cc1c([C@@H](O)CN2CCC(C)(NC(=O)c3cnc(-n4cnnn4)cn3)CC2)ccc2c1COC2=O` [Example 72, (R)-N-(1-(2-Hydroxy-2-(4-methyl-1-oxo-1,3-dihydroisobenzofuran-5-yl)ethyl)-4-methylpiperidin-4-yl)-5-(1H-tetrazol-1-yl)pyrazine-2-carboxamide]: the IC50 came out at 80 nM. For `Cc1c([C@@H](O)CN2CCC(NC(=O)c3ccc(-n4cccn4)nc3)CC2)ccc2c1COC2=O` [Example 73, (R)-N-(1-(2-Hydroxy-2-(4-methyl-1-oxo-1,3-dihydroisobenzofuran-5-yl)ethyl)piperidin-4-yl)-6-(1H-pyrazol-1-yl)nicotinamide] the value was 270 nM. `Cc1c([C@@H](O)CN2CCC(NC(=O)c3ccc(-n4cncn4)cc3)CC2)ccc2c1COC2=O` [Example 74, (R)-N-(1-(2-Hydroxy-2-(4-methyl-1-oxo-1,3-dihydroisobenzofuran-5-yl)ethyl)piperidin-4-yl)-4-(1H-1,2,4-triazol-1-yl)benzamide] displayed an IC50 of 630 nM. The compound `Cc1c([C@@H](O)CN2CCC(NC(=O)c3ccc(-c4nccs4)cc3)CC2)ccc2c1COC2=O` [Example 75, (R)-N-(1-(2-Hydroxy-2-(4-methyl-1-oxo-1,3-dihydroisobenzofuran-5-yl)ethyl)piperidin-4-yl)-4-(thiazol-2-yl)benzamide] displayed a concentration for half-maximal inhibition (IC50) of 390 nM. `Cc1c([C@@H](O)CN2C3CCC2CC(NC(=O)c2ccc(-n4cnnn4)cn2)C3)ccc2c1COC2=O` (stereo partly drawn) [Example 76, N-(8-((R)-2-Hydroxy-2-(4-methyl-1-oxo-1,3-dihydroisobenzofuran-5-yl)ethyl)-8-azabicyclo[3.2.1]octan-3-yl)-5-(1H-tetrazol-1-yl)picolinamide] yielded a half-maximal inhibitory concentration (IC50) of 430 nM. For `Cc1c([C@@H](O)CN2CCC(C)(NC(=O)c3ccc4nonc4c3)CC2)ccc2c1COC2=O` [Example 77, (R)-N-(1-(2-Hydroxy-2-(4-methyl-1-oxo-1,3-dihydroisobenzofuran-5-yl)ethyl)-4-methylpiperidin-4-yl)benzo[c][1,2,5]oxadiazole-5-carboxamide], the IC50 came to 530 nM. The compound `Cc1cc(C(=O)NC2CCN(C[C@H](O)c3ccc4c(c3C)COC4=O)CC2)ccc1-n1cnnn1` [Example 78, (R)-N-(1-(2-Hydroxy-2-(4-methyl-1-oxo-1,3-dihydroisobenzofuran-5-yl)ethyl)piperidin-4-yl)-3-methyl-4-(1H-tetrazol-1-yl)benzamide] gave an IC50 of 560 nM. Turning to `Cc1c([C@@H](O)CN2CCC(NC(=O)c3ccc(-n4cnnn4)c4ncccc34)CC2)ccc2c1COC2=O` [Example 79, (R)-N-(1-(2-Hydroxy-2-(4-methyl-1-oxo-1,3-dihydroisobenzofuran-5-yl)ethyl)piperidin-4-yl)-8-(1H-tetrazol-1-yl)quinoline-5-carboxamide], half-maximal inhibition (IC50) required 370 nM.

`Cc1c([C@@H](O)CN2CCCC(C(C)(C)NC(=O)c3ccc(-n4cnnn4)nc3)C2)ccc2c1COC2=O` (stereo partly drawn) [Example 80, N-(2-(1-((R)-2-Hydroxy-2-(4-methyl-1-oxo-1,3-dihydroisobenzofuran-5-yl)ethyl)piperidin-3-yl)propan-2-yl)-6-(1H-tetrazol-1-yl)nicotinamide] yielded an IC50 of 970 nM.

In the case of `Cc1c([C@@H](O)CN2C3CCC2CC(NC(=O)c2ccc(-n4cnnn4)nc2)C3)ccc2c1COC2=O` (stereo partly drawn) [Example 82, N-(8-((R)-2-Hydroxy-2-(4-methyl-1-oxo-1,3-dihydroisobenzofuran-5-yl)ethyl)-8-azabicyclo[3.2.1]octan-3-yl)-6-(1H-tetrazol-1-yl)nicotinamide], inhibition was half-maximal at 250 nM (IC50). As to `Cc1c([C@@H](O)CN2CCCC(C)(CNC(=O)c3ccc(-n4cnnn4)nc3)C2)ccc2c1COC2=O` (stereo partly drawn) [Example 83, N-((1-((R)-2-Hydroxy-2-(4-methyl-1-oxo-1,3-dihydroisobenzofuran-5-yl)ethyl)-3-methylpiperidin-3-yl)methyl)-6-(1H-tetrazol-1-yl)nicotinamide], half-maximal inhibition (IC50) was put at 720 nM. Then `Cc1c([C@@H](O)CN2CCC(C)(CNC(=O)c3ccc(-n4cnnn4)nc3)C2)ccc2c1COC2=O` (stereo partly drawn) [Example 84, N-((1-((R)-2-Hydroxy-2-(4-methyl-1-oxo-1,3-dihydroisobenzofuran-5-yl)ethyl)-3-methylpyrrolidin-3-yl)methyl)-6-(1H-tetrazol-1-yl)nicotinamide], with 190 nM; and `Cc1cc(C(=O)NCC2CCN(C[C@H](O)c3ccc4c(c3C)COC4=O)C2)ncc1-n1cnnn1` (stereo partly drawn) [Example 85, N-((1-((R)-2-Hydroxy-2-(4-methyl-1-oxo-1,3-dihydroisobenzofuran-5-yl)ethyl)pyrrolidin-3-yl)methyl)-4-methyl-5-(1H-tetrazol-1-yl)picolinamide], with 370 nM; and `Cc1c([C@@H](O)CN2CCC(CNC(=O)c3ccc(-n4cnnn4)cn3)C2)ccc2c1COC2=O` (stereo partly drawn) [Example 86, N-((1-((R)-2-Hydroxy-2-(4-methyl-1-oxo-1,3-dihydroisobenzofuran-5-yl)ethyl)pyrrolidin-3-yl)methyl)-5-(1H-tetrazol-1-yl)picolinamide], with 980 nM.

Turning to `Cc1c([C@@H](O)CN2CCC(N3Cc4cc([N+](=O)[O-])ccc4C3=O)CC2)ccc2c1COC2=O` [Example 88, (R)-2-(1-(2-Hydroxy-2-(4-methyl-1-oxo-1,3-dihydroisobenzofuran-5-yl)ethyl)piperidin-4-yl)-5-nitroisoindolin-1-one], the 50% inhibitory concentration (IC50) is 30 nM. On to `Cc1c([C@@H](O)CN2CCC(CNC(=O)c3ccc4nonc4c3)C2)ccc2c1COC2=O` (stereo partly drawn) [Example 89, N-((1-((R)-2-Hydroxy-2-(4-methyl-1-oxo-1,3-dihydroisobenzofuran-5-yl)ethyl)pyrrolidin-3-yl)methyl)benzo[c][1,2,5]oxadiazole-5-carboxamide], for which half-maximal inhibition (IC50) required 260 nM. `Cc1c([C@@H](O)CN2CCC(N3Cc4cc(-n5cnnn5)ccc4C3=O)CC2)ccc2c1COC2=O` [Example 91, (R)-2-(1-(2-Hydroxy-2-(4-methyl-1-oxo-1,3-dihydroisobenzofuran-5-yl)ethyl)piperidin-4-yl)-5-(1H-tetrazol-1-yl)isoindolin-1-one] gave a half-inhibitory concentration (IC50) of 130 nM.

The term IC50 denotes the midpoint of a concentration-inhibition curve.
